The results in this text go back to ChEMBL document CHEMBL3507680, “University of Dundee, Gates Library screen for HepG2 cell viability”.

This data set in a line: Human HepG2 cell viability assay in 384 well format. The data set is classed as toxicity, cell-based. On the set-up: dose 125 nL, time 70.5 hour; concentration not given beside the values. The conditions noted are these: HepG2 cells, read-out: Inhibition.
On to `Cc1cc(C(=O)N2CCC3(CCC(=O)N(CC(N)=O)C3)CC2)ccc1O`, for which the cytotoxicity at 70.5 h was -14%.

Turning to `CS(=O)(=O)NCC1CCN(Cc2cc3ccccc3[nH]c2=O)C1` (stereo not given), the cytotoxicity at 70.5 h was -3.86%. As for `O=C1CC2(CCCC2)CC(=O)N1CCn1cnnc1`, the figure is -8.05%; as for `COCCN(CC1CCCN(C2Cc3ccccc3C2)C1)C(=O)COC` (stereo not given), -7.6%; as for `Cc1cccc(CC(=O)N2CCCC(N(C)CCCN(C)C)C2)c1` (stereo not given), -4.84%.

For `COCCCNc1ncnc2c1CCN(C(=O)CC1C=CCC1)CC2` (stereo not given), the cytotoxicity at 70.5 h is -5.04%.

On to `Cc1cccn2c(CNC(C)CCc3ccc(O)cc3)cnc12` (stereo not given), for which the cytotoxicity at 70.5 h is -7.78%.

On to `CC(C)[C@H]1CN(c2ccncc2)C[C@@H]1NC(=O)C1(C#N)CCOCC1`, for which the cytotoxicity at 70.5 h was -8.3%. `O=C(O)C1(n2ccc(-c3ccco3)n2)CCN(Cc2cccs2)CC1`: the cytotoxicity at 70.5 h is 17.7%. Regarding `O=C(c1cc(=O)[nH][nH]1)N1CCCC2(CCC(=O)N(C3CCCC3)C2)C1` (stereo not given), the cytotoxicity at 70.5 h is -5.45%. Then `CC(C)c1nccn1CCCNC(=O)c1ccc(-c2cn[nH]c2)nc1`, with -3.19%. As for `Cc1cccc(CN2CCN(C(=O)N(C)C)[C@@H]3CS(=O)(=O)C[C@@H]32)n1`, the figure is 2.11%. Then `O=C1NC(C(=O)NCc2cccnc2Oc2ccccc2F)CO1` (stereo not given), with -18.5%.

With `Cc1noc(CN(C)CC2CCCN(CCc3ccc(Cl)cc3)C2)n1` (stereo not given), the cytotoxicity at 70.5 h was -11.4%. Then `COCCc1noc(-c2cn(Cc3ccccc3C)nn2)n1`, with -4.41%; and `CC(C)CC(NC(=O)c1cc(-c2cccn2C)n[nH]1)c1ncnn1C` (stereo not given), with -1.67%; and `O=C(C1CCC1)N1C[C@@H]2CC[C@H](C1)N(S(=O)(=O)c1ccccc1)C2`, with -8.37%. Consider `CC(C)NC(=O)Nc1ccc(-c2nc3c([nH]2)CCNC3)cc1`, for which the cytotoxicity at 70.5 h was -15.8%. For the compound `CNc1nccc(-c2cn(C)nc2C)n1`, the cytotoxicity at 70.5 h is 1.94%.

Turning to `CCOc1cccc(CN(Cc2cnn(C)c2)CC(C)C)c1O`, the cytotoxicity at 70.5 h came to 7.39%. In the case of `O=c1cc(N2CCCC2)cnn1Cc1noc(C2CCCO2)n1` (stereo not given), the cytotoxicity at 70.5 h was 7.8%.

For the compound `CNS(=O)(=O)c1ccc(CN2CCCN(CC(C)C)CC2)cc1`, the cytotoxicity at 70.5 h is -0.0493%. With `COc1ccc(N2CCN(C[C@@H](C)CO)CC2=O)cc1`, the cytotoxicity at 70.5 h was -4.04%. In the case of `Cc1ccc(NC(=O)[C@H]2C[C@H](C(=O)O)CN(CC3CC3)C2)cn1`, the cytotoxicity at 70.5 h was -21.8%.

For the compound `CCNc1ncc(C(=O)NCc2csc(-c3ncccn3)n2)cn1`, the cytotoxicity at 70.5 h was 3.46%. As for `COc1ccc(C(=O)N2C[C@H]3CC[C@@H]2CN(C)C3)cc1Cl`, the figure is 47.4%.

Take `CN(C)c1nc2c(c(N(C)C)n1)CCN(C(=O)CN1CCC(O)CC1)C2`: the cytotoxicity at 70.5 h is -7.75%.

As for `Cc1nn(CCO)cc1CN1CCCC1c1nc2c(C)cccc2[nH]1` (stereo not given), the cytotoxicity at 70.5 h is -2.76%.

Take `O=C(c1ccc(-c2cc[nH]n2)cc1)N1CC[C@H](CO)[C@H](O)C1`: the cytotoxicity at 70.5 h amounted to 0.543%. As for `COc1nc(C)c(C(=O)N2CCc3[nH]nc(Cc4ccccc4)c3C2)s1`, the figure is -1.57%.

Regarding `COCCCN1CC2(CCC1=O)CCN(Cc1cc(C)no1)CC2`, the cytotoxicity at 70.5 h is 12.2%. As for `Cc1cccc(CN2C[C@@H]3CC[C@H](C2)N(Cc2c(C)noc2C)C3=O)n1`, the figure is -3.2%.

For the compound `CN(C)CCNc1ccc(-c2nc(COc3ccccc3)no2)cn1`, the cytotoxicity at 70.5 h came out at 3.62%. As for `Cn1c(CO)nnc1CC1CCN(Cc2ccc(C#N)cc2)CC1`, the figure is -1.35%; as for `CC1(C)CNC(=O)c2nc(C3CCCN(C(=O)C4CC4)C3)[nH]c2C1` (stereo not given), -7.49%; as for `Cc1ccc(C(C(=O)N(C)CCc2cn[nH]c2)N(C)C)cc1` (stereo not given), -8.45%. Then `CCc1nccn1CCCNC(=O)CN1CCN(c2ncccn2)CC1`, with -7.13%. Then `COC1CCCOC12CCN(C(=O)NCCc1cccs1)CC2` (stereo not given), with -0.941%. On to `CCC(O)Cn1cc(C2=CCN(Cc3ccc(OC)cc3)CC2)cn1` (stereo not given), for which the cytotoxicity at 70.5 h is -11.9%. As for `CCCc1cc(C(=O)NCCCn2nnc3ccccc32)no1`, the figure is -6.64%; as for `CCCc1nc(CN(CC)C(=O)c2ccc3ncsc3c2)no1`, -0.393%. In the case of `CN1CC2(CCN(C(=O)c3ccc4c(=O)n(C)cnc4c3)CC2)CC1=O`, the cytotoxicity at 70.5 h was -6.3%. For the compound `O=C(CCCc1cn[nH]c1)N1C[C@@H](CN2CCCCCC2)[C@@H](CO)C1`, the cytotoxicity at 70.5 h was -6.07%.

`COc1cc(OC)nc(N2CCC3(CC2)OCCCC3O)n1` (stereo not given): the cytotoxicity at 70.5 h is -5.5%.

As to `Cc1cnc(C(=O)N(C)Cc2nc(-c3ccccn3)no2)cn1`, the cytotoxicity at 70.5 h amounted to 1.35%.

As for `COCc1ncc(-c2nccn2CCS(C)(=O)=O)cn1`, the cytotoxicity at 70.5 h is 27.5%.

As to `CN(C)C(=O)c1ccc2c(c1)N(C)C(CC(=O)NC(CO)CO)CO2` (stereo not given), the cytotoxicity at 70.5 h is -7.74%.

With `Cc1cc2nc(C(C)C)cc(N(C)CC3CCN(C(C)C)C3)n2n1` (stereo not given), the cytotoxicity at 70.5 h was 28%. Then `CCC(=O)Nc1cccc(OCC(=O)N[C@@H]2C[C@H]3CC[C@@H]2C3)c1`, with -22.4%. As for `CC(C)Cc1cc(CNC(=O)c2cccc3c2NCCC3)no1`, the figure is -8.61%.

Consider `CC(C)C1CN(C(=O)c2cc(=O)[nH]c(=O)[nH]2)CCC(=O)N1CC1CC1` (stereo not given), for which the cytotoxicity at 70.5 h is -2.3%. As for `CCCn1ccnc1-c1nccn1CCn1cnnc1`, the figure is -6.38%. As for `Cc1nc2c(c(NC(C)c3nnn[nH]3)n1)Cc1ccccc1OC2` (stereo not given), the figure is -6.63%; as for `COCCCC1CCCCN1Cc1cnn(C)c1C1CC1` (stereo not given), -2.6%; as for `O=C(Cc1ccc(CO)cc1)N1CCN(CC2CC2)[C@@H]2CS(=O)(=O)C[C@@H]21`, 2.89%. Then `CC(C)(C)N1CC(C(=O)NCc2noc(Cc3ccccc3)n2)CC1=O` (stereo not given), with 21.2%. With `CN1CCCC(CCC(=O)NCCCn2ncc3ccccc32)C1` (stereo not given), the cytotoxicity at 70.5 h was 25.3%. As for `CCN(Cc1noc(C)n1)C(=O)C(c1ccccc1C)N(C)C` (stereo not given), the figure is -6.06%; as for `COC(=O)[C@]12CNC[C@H]1CN(Cc1nc(C)c[nH]1)C2`, 8.04%. As for `COc1cc(C(=O)N2CC(Oc3ccccc3Cl)C2)ccn1`, the figure is -3.47%; as for `O=C1CC[C@H]2CN(Cc3ncc[nH]3)CC[C@H]2N1CC1CCNCC1`, -1.94%; as for `CSc1ccc(CN(CCO)C(=O)CCNC(C)=O)cc1`, -14.7%.

Regarding `Cc1nnc(N2CC[C@@]3(O)CCNC[C@H]3C2)c2ccccc12`, the cytotoxicity at 70.5 h was -12.3%.

For `Cc1nc2c(c(N(C)Cc3ccccc3-n3cccn3)n1)CCNCC2`, the cytotoxicity at 70.5 h amounted to 26.5%. Turning to `CCn1cc(CN2CCCCC2CCn2ccnc2C)cc1C#N` (stereo not given), the cytotoxicity at 70.5 h is -6.87%. As for `CCC(C(=O)N(C)Cc1cc(C2CC2)[nH]n1)n1cccn1` (stereo not given), the figure is -5.95%; as for `COCCN(Cc1c(C)nn(C)c1C)C(=O)C1COc2ccccc2C1` (stereo not given), -1.84%; as for `Cn1ncc2c(N3CC(N4CCCCC4)C3)nc(-c3ccncc3)nc21`, -12.9%. As for `CC(=O)CCC(=O)N1CCC2(CC1)N=C(CCC(C)C)NC2=O`, the figure is -0.28%. Then `CN(CCc1nc2cc(Cl)ccc2[nH]1)C(=O)c1ncn[nH]1`, with -9.76%; and `CN(Cc1nccs1)C1CCN(c2cccc(-c3cscn3)c2)CC1`, with 10.5%. As to `CC(C)c1cc(NCC2(CO)CCCC2)ncn1`, the cytotoxicity at 70.5 h was -10.6%. As for `Cc1ncsc1-c1ccn(CC(=O)Nc2cnn(C)n2)n1`, the cytotoxicity at 70.5 h was 45.6%. As for `CNC(=O)CCC(=O)N1CCOC(c2ccc3cc(OC)ccc3c2)C1` (stereo not given), the figure is -3.11%; as for `N[C@@H]1CC[C@H](C(=O)NCCc2nc(-c3ccccc3)cs2)C1`, -1.72%; as for `Cc1nn(-c2ccccc2)c(C)c1-c1ccnc(N2CCCNCC2)n1`, -2.54%.

On to `C1CC(CN2C[C@H]3CC[C@@H]2CN(Cc2nnc(C4CC4)o2)C3)C1`, for which the cytotoxicity at 70.5 h was -16.7%. As for `CCCN1CC2(CCN(c3cc(C4CC4)ncn3)CC2)CC1C(=O)O` (stereo not given), the figure is -4.45%; as for `CCn1ccnc1CN(C)Cc1nc(Cc2ccccc2F)no1`, 7.48%. As for `Cc1ncc(C(=O)N2CCC(N3C[C@@H](C)O[C@@H](C)C3)CC2)c(=O)[nH]1`, the figure is 8.83%.

As for `CC[C@@]1(O)CCN(C(=O)c2ccoc2)C[C@H]1O`, the cytotoxicity at 70.5 h is -7.14%. As for `Cn1ccnc1-c1nccn1C[C@@H]1CCCN2CCCC[C@H]12`, the figure is 2.02%; as for `CN1CCC(N(CCc2ccccc2)C(=O)COCC2CCCO2)CC1` (stereo not given), -0.746%.

As for `CN(C)CCNC(=O)c1ccc(OC2CCN(C(=O)CO)CC2)c(Cl)c1`, the cytotoxicity at 70.5 h is -7.98%. Then `O=C1NC(c2cccnc2)=NC12CCN(CCCc1ccccc1)CC2`, with -8.89%. As for `COCCOCC(=O)N1CCC2(CCCN(C3CCOCC3)C2=O)C1` (stereo not given), the figure is 11.4%; as for `Cn1ncc(N2CCC(CNC(=O)[C@@H](N)C3CCCCC3)CC2)cc1=O`, 3.03%.

Consider `CCNc1ncc(CN2C[C@H]3CC[C@@H]2CN(C(=O)C2CCC2)C3)cn1`, for which the cytotoxicity at 70.5 h was -7.7%. As for `COc1cc2c(cc1C(=O)N1CC(c3ccncc3)C1)CCC2`, the figure is -5.23%.

`Cc1cnn(CCNc2ncnc3c2CCN(CC2CCOC2)CC3)c1` (stereo not given): the cytotoxicity at 70.5 h was -2.24%. Then `CCCN1CCCC2(CCN(Cc3noc(C4CCCC4)n3)C2)C1=O` (stereo not given), with 3.33%. Then `Cc1cc(C)nc(CN2CCOC(c3ccc(Cl)cc3)C2)n1` (stereo not given), with -1.88%; and `O=C(NCc1cnn2ccccc12)NC1CCCC1`, with -15.5%. As for `COc1cncc(-n2nc(C)c(CC(C)=O)c2C)c1`, the figure is 0.266%; as for `Cc1ccn2c(F)c(C(=O)N3CCC4(CCC(=O)N(C)C4)CC3)nc2c1`, -10.1%.
